Assay results from ChEMBL document CHEMBL2021834, “Novel sulfonylurea derivatives as H3 receptor antagonists. Preliminary SAR studies” (Eur J Med Chem, 2012).

Target: Voltage-gated inwardly rectifying potassium channel KCNH2 (Homo sapiens, UniProt Q12809)
Sequence (Q12809 whole entry): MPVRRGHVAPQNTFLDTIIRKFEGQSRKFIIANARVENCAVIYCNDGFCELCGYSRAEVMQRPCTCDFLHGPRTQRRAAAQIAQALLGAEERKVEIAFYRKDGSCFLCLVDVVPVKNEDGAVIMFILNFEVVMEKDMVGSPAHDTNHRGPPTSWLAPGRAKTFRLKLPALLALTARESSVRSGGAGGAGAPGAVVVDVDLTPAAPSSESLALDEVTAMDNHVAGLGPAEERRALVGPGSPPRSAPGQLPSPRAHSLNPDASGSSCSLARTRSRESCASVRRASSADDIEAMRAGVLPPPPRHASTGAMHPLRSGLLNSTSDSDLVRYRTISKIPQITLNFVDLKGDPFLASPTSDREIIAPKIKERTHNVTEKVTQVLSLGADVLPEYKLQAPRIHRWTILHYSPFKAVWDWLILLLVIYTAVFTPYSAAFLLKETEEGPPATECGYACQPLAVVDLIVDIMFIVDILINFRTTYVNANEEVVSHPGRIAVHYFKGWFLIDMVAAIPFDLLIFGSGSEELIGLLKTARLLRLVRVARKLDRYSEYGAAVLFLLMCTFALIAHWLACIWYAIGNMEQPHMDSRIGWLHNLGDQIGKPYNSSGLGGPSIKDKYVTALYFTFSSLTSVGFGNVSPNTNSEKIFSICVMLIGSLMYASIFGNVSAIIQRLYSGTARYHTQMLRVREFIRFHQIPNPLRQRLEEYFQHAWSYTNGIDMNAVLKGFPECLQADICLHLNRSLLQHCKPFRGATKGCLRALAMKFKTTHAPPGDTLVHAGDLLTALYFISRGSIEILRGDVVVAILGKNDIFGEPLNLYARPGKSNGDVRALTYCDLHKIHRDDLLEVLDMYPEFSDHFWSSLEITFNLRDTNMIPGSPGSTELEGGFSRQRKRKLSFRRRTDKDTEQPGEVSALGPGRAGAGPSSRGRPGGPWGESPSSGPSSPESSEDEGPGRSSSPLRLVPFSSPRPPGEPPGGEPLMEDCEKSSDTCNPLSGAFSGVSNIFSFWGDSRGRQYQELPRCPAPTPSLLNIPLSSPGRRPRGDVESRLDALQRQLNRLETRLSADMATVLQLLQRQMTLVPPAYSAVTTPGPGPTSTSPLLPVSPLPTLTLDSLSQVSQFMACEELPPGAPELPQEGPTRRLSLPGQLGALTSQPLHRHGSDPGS
Description: Displacement of [3H] dofetilide from human ERG channel expressed in HEK293 cells after 45 mins by scintillation counting method

SMILES	IC50
CC(C)NC(=O)NS(=O)(=O)c1ccc(OCCN2CCCC2)cc1	> 100 µM
O=C(Nc1ccccc1C(F)(F)F)NS(=O)(=O)c1ccc(OCCCN2CCCCC2)cc1	> 100 µM
COc1ccc(NC(=O)NS(=O)(=O)c2ccc(OCCCN3CCCCC3)cc2)cc1	> 100 µM
Cc1ccc(NC(=O)NS(=O)(=O)c2ccc(OCCCN3CCCCC3)cc2)cc1	> 100 µM
CCOC(=O)C1CCN(CCCOc2ccc(S(N)(=O)=O)cc2)CC1	76.5 µM
CCOC(=O)C1CCN(CCCCOc2ccc(S(N)(=O)=O)cc2)CC1	18.8 µM
O=C(Nc1ccc(C(F)(F)F)cc1)NS(=O)(=O)c1ccc(OCCCCN2CCCC2)cc1	49.1 µM
O=C(Nc1ccccc1)NS(=O)(=O)c1ccc(OCCCN2CCCCC2)cc1	> 100 µM
CCOC(=O)C1CCN(CCOc2ccc(S(=O)(=O)NC(=O)Nc3ccccc3)cc2)CC1	> 100 µM
O=C(Nc1cccc2ccccc12)NS(=O)(=O)c1ccc(OCCCN2CCCC2)cc1	> 100 µM
O=C(Nc1cc(Cl)ccc1Cl)NS(=O)(=O)c1ccc(OCCCCN2CCCCC2)cc1	> 100 µM
CCOC(=O)C1CCN(CCCCOc2ccc(S(=O)(=O)NC(=O)Nc3ccccc3)cc2)CC1	> 100 µM
O=C(Nc1ccc(C(F)(F)F)cc1)NS(=O)(=O)c1ccc(OCCN2CCCCC2)cc1	> 100 µM
O=C(Nc1ccc(C(F)(F)F)cc1)NS(=O)(=O)c1ccc(OCCN2CCCC2)cc1	> 100 µM
